These results are taken from patent publication US20130150317A1, “COMPOUNDS FOR THE TREATMENT OF RENAL CELL CARCINOMA” (Myrovlytis Technology Ventures Limited, priority 2010, published 2013).

“Also recorded” adds a separate entry of the source. Like-named read-outs stand apart in the source and are kept apart here.

Experiment [1] concerns VHL-deficient cells in ccRCC cell lines. The settings on record: Sutphin et al., Cancer Res 2007, cited from earlier work.
The next experiment concerns UOK257-FLCN^− cells. The experiment in a line: SRB growth inhibition assay in UOK257-FLCN^− cells. The format is cell-based, human. The text has this:
(§1) Human renal carcinoma of BHD origin cells UOK-257 (UOK-FLCN^−) and FLCN transfected UOK-257 cells UOK-FLCN^+ (Yang et al Cancer Genet Cytogenet. 2008 Jan. 15; 180(2):100-9) were provided by Dr Marston Linehan and Dr. Laura S Schmidt (Urologic Oncology Branch, Centre for Cancer Research, National Cancer Institute, National Institutes of Health, Bethesda, Md. 20892, USA). UOK-257 is the only RCC cell line that has been derived from a patient with BHD and harbours a germline FLCN frameshift mutation (c.1285dupC) (predicted, in the absence of nonsense mediated mRNA decay, to lead to premature protein truncation (p.His429ProfsX27) (Yang et al., Cancer Genet Cytogenet, 2008 Jan. 15; 180(2):100-9). We are not aware of any sporadic RCC cell lines with homozygous FLCN inactivation. FTC-133 cells were purchased from ECACC (Salisbury, United Kingdom). These cells are a non-RCC cell line derived from human thyroid carcinoma. 786-0 cells were available from the author's lab (Clifford et al., Hum Mol Genet. 2001 May 1; 10(10):1029-38). 786-O is a kidney cancer cell line that harbours an inactivating VHL gene mutation (c.311delG p.G104fs*55). All cell lines were cultured in DMEM with supplement of 10% foetal bovine serum except for FTC-133 cells which were incubated in medium with DMEM and Hens (1:1).
The sensitivity of the cell lines to drug-induced cell growth inhibition was determined using the sulphorhodamine B assay (SRB) as described by Lu et al., Clin Cancer Res. 2001:7:2114-23. Briefly, adherent exponentially growing cells were seeded into 96-well plates at 3-5×10^3 cells/100 μl/well. […] The absorbance per well was measured at 570 nm on a Victor X3 Multilabel Plate Reader (PerkinElmor, Beaconsfield, United Kingdom).
GI50 values, defined as the concentration of compounds required to inhibit growth by 50%, were then calculated. The ratio of GI50 value from UOK257-FLCN^+ and UOK257-FLCN^− were calculated and used as an indicator for the sensitivity to FLCN mutant cells.

The next experiment has as its system UOK257-FLCN^+ cells. The experiment in a line: SRB growth inhibition assay in UOK257-FLCN^+ cells. In kind it is cell-based, human. The settings on record: Homo sapiens, 72 h, 72 hours continuous exposure, mean ± SE (n), read-out: GI50 nM in UOK-FLCN^+.
Excerpt: as §1
The sensitivity of the cell lines to drug-induced cell growth inhibition was determined using the sulphorhodamine B assay (SRB) as described by Lu et al., Clin Cancer Res. 2001:7:2114-23. Briefly, adherent exponentially growing cells were seeded into 96-well plates at 3-5×10^3 cells/100 μl/well. After 20-24 h at 37° C., drugs were added at the appropriate drug concentrations to the wells (final DMSO conc. 1%) as indicated in the Results section. […] The absorbance per well was measured at 570 nm on a Victor X3 Multilabel Plate Reader (PerkinElmor, Beaconsfield, United Kingdom).
UOK-257 is the only RCC cell line that has been derived from a patient with BHD and harbours a germline FLCN frameshift mutation (c.1285dupC) (predicted, in the absence of nonsense mediated mRNA decay, to lead to premature protein truncation (p.His429ProfsX27) (Yang et al Cancer Genet Cytogenet, 2008 Jan. 15; 180(2):100-9). Both UOK257-FLCN^− and UOK257-FLCN^+ cells were examined for their sensitivities to growth inhibition induced by 15 compounds selected from the COMPARE analysis. Various concentrations of compounds were introduced into the cells 24 hrs after seeding, incubation was continued for 72 hours and growth inhibition was assessed using the suiphorhodamine B (SRB) assay. GI50 values, defined as the concentration of compounds required to inhibit growth by 50%, were then calculated. The ratio of GI50 value from UOK257-FLCN^+ and UOK257-FLCN^− were calculated and used as an indicator for the sensitivity to FLCN mutant cells.

In experiment [2] the test system is UOK cells with/without FLCN expression. As to the kind of experiment: Effect of low-concentration rapamycin on cell proliferation (preliminary data). The settings on record: 1 nmol/L rapamycin; data not shown.

For `CO[C@@H]1[C@H](O)C[C@@H](O[C@@H]2C[C@H](Oc3cc4cc5c(c(O)c4c(O)c3C)C(=O)[C@@H](O[C@H]3C[C@@H](O[C@H]4C[C@@H](O[C@H]6C[C@](C)(O)[C@@H](OC(C)=O)[C@H](C)O6)[C@H](O)[C@@H](C)O4)[C@H](O)[C@@H](C)O3)[C@H]([C@H](OC)C(=O)[C@@H](O)[C@@H](C)O)C5)O[C@H](C)[C@@H]2OC(C)=O)O[C@@H]1C` [chromomycin A3], the entries for the “differential toxicity to VHL-deficient relative to VHL-positive RCC cell lines (in words)” value in experiment [1] (listed as ChA3) and in experiment [1] (listed as Chromomycin A3 (ChA3)) were “discriminate killing of VHL-deficient cells” and “differential toxicity”, respectively. Besides, the GI50 (as a rule, the concentration that inhibits growth by half) in the experiment with UOK257-FLCN^− cells (Homo sapiens, SRB assay, 72 hours continuous exposure, mean ± SE (n), read-out: GI50 nM in UOK-FLCN^−) is 37.4 ± 6.9 nM; in the experiment on UOK257-FLCN^+ cells, 33 ± 5.7 nM. Moreover, in the experiment with UOK257-FLCN^− cells (listed as ChA3), the “differential growth inhibitory activity in FLCN-deficient and FLCN-positive UOK-257 cell lines (in words)” value is “did not find any differences; also recorded: does not demonstrate selective toxicity; also recorded: does not show differential growth inhibitory activity”. Also, the “GI50 Ratio of UOK-FLCN^+/UOK-FLCN^−” value in the experiment on UOK257-FLCN^− cells (ratio>1 = more inhibitory to FLCN^− cells) is reported as 0.88.
For the molecule `CO[C@H]1C[C@@H]2CC[C@@H](C)[C@@](O)(O2)C(=O)C(=O)N2CCCC[C@H]2C(=O)O[C@H]([C@H](C)C[C@@H]2CC[C@@H](O)[C@H](OC)C2)CC(=O)[C@H](C)/C=C(\C)[C@@H](O)[C@@H](OC)C(=O)[C@H](C)C[C@H](C)/C=C/C=C/C=C/1C` [rapamycin], in experiment [2], the “reduction on cell proliferation” value is 10%-15.
